Data published in PMC6284057, “Combined Antibacterial Effects of Goat Cathelicidins With Different Mechanisms of Action” (Frontiers in Microbiology, 2018).
Like-named read-outs stand apart in the source and are kept apart here. No end group written: not given here.

Experiments:
E. coli (XDR CI 1057) [1] = assay: microbe, parasite or virus in culture; type: cell-based, Escherichia coli
Experimental: (§1) Antimicrobial assay was performed as described previously ([Panteleev et al., 2017b]). Briefly, mid-log phase bacterial test cultures were diluted with the 2× Mueller-Hinton broth (MH, Sigma) supplemented with 1.8% NaCl or without it so that to reach a final cell concentration of 10^6 CFU/ml. 50 μl aliquots of the obtained bacterial suspension were added to 50 μl of the peptide solutions serially diluted with 0.1% water solution of bovine serum albumin (BSA) in 96-well flat-bottom polystyrene microplates (Eppendorf #0030730011). After incubation at 37°C and 900 rpm for 24 h the minimum inhibitory concentrations (MIC) were determined as the lowest peptide concentrations that prevented growth of a test microorganism observed as visible turbidity. The results were expressed as the median values determined on the basis of at least three independent experiments performed in triplicate.

E. coli ML-35p [2] = type: cell-based, Escherichia coli; settings: Mueller-Hinton broth, 10^6 CFU/ml, 0.1% BSA, 37°C, 24 h, median of at least 3 experiments
Experimental: as §1

E. coli (XDR CI 1057) [3] = type: cell-based, Escherichia coli; settings: for Fractional inhibitory concentration (FICA, FICB): [X]/MICX; for Fractional inhibitory concentration (FICA, FICB) / MIC of the peptide when used together ([A], [B]): 0.9% NaCl; for MIC of the peptide when used together ([A], [B]): in the mix ChMAP-28 + mini-ChBac7.5Nα, other peptide at sub-inhibitory concentration; for MIC of the individual peptide (MICA, MICB): peptide used individually, medium with physiological NaCl (0.9%), median of 3 experiments in duplicate
Experimental: as §1
(§2) The peptides were twofold serially diluted with 0.1% BSA in 96-well microplates (Eppendorf #0030730011). Then, the peptide solutions were mixed in the new test plate crosswise in such a way that the resulting checkerboard contained each combination of the cathelicidins in eight doubly increasing concentrations, with wells containing the highest concentration of each peptide at opposite corners ([Berditsch et al., 2015]). Then, the antimicrobial assay was performed as described in the previous section. […] The results were expressed as the median values determined on the basis of three independent experiments performed in duplicate. Estimation of synergistic effects of different cathelicidins was performed by calculating the fractional inhibitory concentration index (FICI) according to the equation: FICI = [À]/MICÀ + [B]/MICB, where MICÀ and MICB are the MICs of the individual substances, while [A] and [B] are the MICs of A and B when used together. A synergistic effect was defined at a FICI ≤ 0.5.

E. coli BL21 (DE3) = type: cell-based, Escherichia coli; settings: BL21, 24 h
Experimental: as §1, §2

E. coli ML-35p [4] = type: cell-based, Escherichia coli; settings: for Fractional inhibitory concentration (FICA, FICB): [X]/MICX; for Fractional inhibitory concentration (FICA, FICB) / MIC of the peptide when used together ([A], [B]): 0.9% NaCl; for MIC of the peptide when used together ([A], [B]): in the mix ChMAP-28 + mini-ChBac7.5Nα, other peptide at sub-inhibitory concentration; for MIC of the individual peptide (MICA, MICB): peptide used individually, medium with physiological NaCl (0.9%), median of 3 experiments in duplicate
Experimental: as §1, §2

K. pneumoniae (CI 287) = type: cell-based, Klebsiella pneumoniae
Experimental: as §1, §2

[5] = tested on: A. baumannii (XDR CI 2675); type: cell-based, Acinetobacter baumannii; settings: for Fractional inhibitory concentration (FICA, FICB): [X]/MICX; for Fractional inhibitory concentration (FICA, FICB) / MIC of the peptide when used together ([A], [B]): 0.9% NaCl; for MIC of the peptide when used together ([A], [B]): in the mix ChMAP-28 + mini-ChBac7.5Nα, other peptide at sub-inhibitory concentration; for MIC of the individual peptide (MICA, MICB): peptide used individually, medium with physiological NaCl (0.9%), median of 3 experiments in duplicate
Experimental: as §1, §2

[6] = tested on: E. coli XDR CI 1057 (26 days with mini-ChBac7.5Nα)
Experimental: as §1, with “After incubation at 37°C and 900 rpm for 24 h the minimum inhibitory concentrations (MIC) were determined as the lowest peptide concentrations that prevented growth of a test microorganism observed as visible turbidity.” left out
(§3) Resistance induction experiments were performed using the previously described method ([Chernysh et al., 2015]) with some modifications. Briefly, on day 1, the overnight culture of wild-type bacteria was diluted with the 2× MH broth containing 1.8% NaCl so that to reach a final cell concentration of 10^6 CFU/ml. 50 μl aliquots of the obtained bacterial suspension were added to 50 μl of the peptide solutions serially diluted with 0.1% water solution of BSA in 96-well microplates (Eppendorf #0030730011). After incubation at 37°C and 900 rpm for 22 ± 2 h, MICs were determined as described above. For each subsequent daily transfer, 5 μl of the inoculum taken from the first well with a sub-inhibitory drug concentration were diluted with 1 ml of the fresh 2× MH broth supplemented with 1.8% NaCl. […] 26 repeated passages in the presence of antimicrobial agents were made for each bacterial strain during the experiment. […] Control serial passages in the absence of the agent were also performed.

[7] = tested on: E. coli XDR CI 1057 (26 days with polymyxin B); settings: Table 4, strain after 26 days with polymyxin B (selection in MH broth with 0.9% NaCl)
Experimental: as §1, with “After incubation at 37°C and 900 rpm for 24 h the minimum inhibitory concentrations (MIC) were determined as the lowest peptide concentrations that prevented growth of a test microorganism observed as visible turbidity.” left out
as §3

[8] = tested on: E. coli XDR CI 1057 (26 days with synergy combination); settings: Table 4, strain after 26 days with synergy combination (selection in MH broth with 0.9% NaCl)
Experimental: as §1, with “After incubation at 37°C and 900 rpm for 24 h the minimum inhibitory concentrations (MIC) were determined as the lowest peptide concentrations that prevented growth of a test microorganism observed as visible turbidity.” left out
as §3

[9] = tested on: E. coli XDR CI 1057 (26 days without antimicrobial agent)
Experimental: as §1, with “After incubation at 37°C and 900 rpm for 24 h the minimum inhibitory concentrations (MIC) were determined as the lowest peptide concentrations that prevented growth of a test microorganism observed as visible turbidity.” left out
as §3

E. coli XDR CI 1057 = settings: for MIC value at transfer “1”: MH broth with 0.9% NaCl, 37°C, legend covers both strains, values match XDR CI 1057
Experimental: Resistance induction experiments were performed using the previously described method ([Chernysh et al., 2015]) with some modifications. Briefly, on day 1, the overnight culture of wild-type bacteria was diluted with the 2× MH broth containing 1.8% NaCl so that to reach a final cell concentration of 10^6 CFU/ml. 50 μl aliquots of the obtained bacterial suspension were added to 50 μl of the peptide solutions serially diluted with 0.1% water solution of BSA in 96-well microplates (Eppendorf #0030730011). After incubation at 37°C and 900 rpm for 22 ± 2 h, MICs were determined as described above. For each subsequent daily transfer, 5 μl of the inoculum taken from the first well with a sub-inhibitory drug concentration were diluted with 1 ml of the fresh 2× MH broth supplemented with 1.8% NaCl. […] Control serial passages in the absence of the agent were also performed.

[10] = Table 4, strain at 0 days of selection experiment (selection in MH broth with 0.9% NaCl)
[11] = Table 4, strain after 26 days with mini-ChBac7.5Nα (selection in MH broth with 0.9% NaCl)
[12] = With 0.9% NaCl, resistant strain, 26 days with mini-ChBac7.5Nα
[13] = Without salt, resistant strain, 26 days with mini-ChBac7.5Nα
[14] = Table 4, strain after 26 days without antimicrobial agent (selection in MH broth with 0.9% NaCl)
[15] = With 0.9% NaCl, control strain, 26 days without antimicrobial agent
[16] = Without salt, control strain, 26 days without antimicrobial agent

Row | Sequence | Minimum inhibitory concentration (E. coli (XDR CI 1057) [1]; [10]) [µM] | Minimum inhibitory concentration (E. coli ML-35p [2]; 0.9% NaCl) [µM] | Minimum inhibitory concentration (E. coli ML-35p [2]; Without NaCl) [µM] | Fractional inhibitory concentration (FICA, FICB) (E. coli (XDR CI 1057) [3]) | MIC of the peptide when used together ([A], [B]) (E. coli (XDR CI 1057) [3]) [µM] | MIC of the individual peptide (MICA, MICB) (E. coli (XDR CI 1057) [3]) [µM] | Fractional inhibitory concentration (FICA, FICB) (E. coli BL21 (DE3)) | MIC of the individual peptide (MICA, MICB) (E. coli BL21 (DE3)) [µM] | Fractional inhibitory concentration (FICA, FICB) (E. coli ML-35p [4]) | MIC of the peptide when used together ([A], [B]) (E. coli ML-35p [4]) [µM] | MIC of the individual peptide (MICA, MICB) (E. coli ML-35p [4]) [µM] | MIC of the individual peptide (MICA, MICB) (K. pneumoniae (CI 287); CI 287, 24 h) [µM] | Fractional inhibitory concentration (FICA, FICB) [5] | MIC of the peptide when used together ([A], [B]) [5] [µM] | MIC of the individual peptide (MICA, MICB) [5] [µM] | Minimum inhibitory concentration [6, 11] [µM] | Minimum inhibitory concentration [6, 12] [µM] | Minimum inhibitory concentration [6, 13] [µM] | Minimum inhibitory concentration [7] [µM] | Minimum inhibitory concentration [8] [µM] | further results
1 | GRFKRFRKKLKRLWHKVGPFVGPILHY [ChMAP-28] | 0.125 | 0.06 | 0.06 | 0.063 | 0.008 | 0.125 | 0.25 | 0.06 | 0.125 | 0.008 | 0.06 | 0.5 | 0.125 | 0.03 | 0.25 | 0.125 | 0.125 | 0.125 | 0.25 | 0.125 | Minimum inhibitory concentration (E. coli (XDR CI 1057) [1]; Table S2, XDR clinical isolate, NaCl content of medium not stated): 0.125 µM; Fractional inhibitory concentration (FICA, FICB) (K. pneumoniae (CI 287); [X]/MICX, 0.9% NaCl): 0.125; Minimum inhibitory concentration [9, 14]: 0.125 µM; Minimum inhibitory concentration [9, 15]: 0.125 µM; Minimum inhibitory concentration [9, 16]: 0.125 µM; MIC value at transfer “1” (E. coli XDR CI 1057): 0.125 µM
2 | RRLRPRRPRLPRPRPRPRPRPR [mini-ChBac7.5Nα] | 8 | 4 | 0.5 | 0.25 | 2 | 8 | 0.125 | 8 | 0.25 | 1 | 4 | 16 | 0.008 | 0.5 | >32 | >128 | >256 | 1 | 64 | 8 | Fractional inhibitory concentration (FICA, FICB) (K. pneumoniae (CI 287); CI 287, 24 h): 0.125; Minimum inhibitory concentration [9, 14]: 8 µM; Minimum inhibitory concentration [9, 15]: 8 µM; Minimum inhibitory concentration [9, 16]: 1 µM; MIC value at transfer “1” (E. coli XDR CI 1057): 8 µM; MIC value after selection (E. coli XDR CI 1057; after eight passages, highest concentration tested 256 μM, MH broth, 0.9% NaCl): > 256 µM
